Data reported in publication PMC4515243, “Phase 1 pharmacokinetic study of the oral pan-AKT inhibitor MK-2206 in Japanese patients with advanced solid tumors” (Cancer Chemotherapy and Pharmacology, 2015).

Test system: Japanese patients with advanced solid tumors
Assay: phase 1 safety and tolerability (DLT, adverse events) in Japanese patients;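 also: toxicities graded by NCI CTCAE version 3.0, treatment given until disease progression or unacceptable toxicity, three to nine patients enrolled per dose level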
[1] = 60 mg QOD, grade 3 mucosal inflammation

Text: Treatment was continued until disease progression or the occurrence of an unacceptable toxicity.
A minimum of three and up to nine patients were enrolled at each dose level based on the toxicity probability intervals [9].
Adverse events were graded using the National Cancer Institute Common Terminology Criteria for Adverse Events, version 3.0.

NC1(c2ccc(-c3nc4ccn5c(=O)[nH]nc5c4cc3-c3ccccc3)cc2)CCC1 [MK-2206]
7: Pyrexia, drug-related adverse event, patients (60 mg QOD (n = 9), All grades)
9: Rash, drug-related adverse event, patients (60 mg QOD (n = 9), All grades)
0: Vomiting, drug-related adverse event, patients (60 mg QOD (n = 9), All grades) | ALT increased, drug-related adverse event, patients (60 mg QOD (n = 9), Grades 3–5) | Blood creatinine increased, drug-related adverse event, patients (60 mg QOD (n = 9), Grades 3–5) | Decreased appetite, drug-related adverse event, patients (60 mg QOD (n = 9), Grades 3–5) | Diarrhea, drug-related adverse event, patients (60 mg QOD (n = 9), Grades 3–5) | Dry skin, drug-related adverse event, patients (60 mg QOD (n = 9), Grades 3–5) | Eosinophil count increased, drug-related adverse event, patients (60 mg QOD (n = 9), Grades 3–5) | Eosinophilia, drug-related adverse event, patients (60 mg QOD (n = 9), Grades 3–5) | Erythema multiforme, drug-related adverse event, patients (60 mg QOD (n = 9), Grades 3–5) | Fatigue, drug-related adverse event, patients (60 mg QOD (n = 9), Grades 3–5) | HbA1C increased, drug-related adverse event, patients (60 mg QOD (n = 9), Grades 3–5) | Hyperglycemia, drug-related adverse event, patients (60 mg QOD (n = 9), Grades 3–5) | Hypernatremia, drug-related adverse event, patients (60 mg QOD (n = 9), Grades 3–5) | Hypoalbuminemia, drug-related adverse event, patients (60 mg QOD (n = 9), Grades 3–5) | Hypokalemia, drug-related adverse event, patients (60 mg QOD (n = 9), Grades 3–5) | Insulin c-peptide increased, drug-related adverse event, patients (60 mg QOD (n = 9), Grades 3–5) | Leukopenia, drug-related adverse event, patients (60 mg QOD (n = 9), Grades 3–5) | Localized edema, drug-related adverse event, patients (60 mg QOD (n = 9), Grades 3–5) | Nausea, drug-related adverse event, patients (60 mg QOD (n = 9), Grades 3–5) | Neutropenia, drug-related adverse event, patients (60 mg QOD (n = 9), Grades 3–5) | Palmar-plantar erythrodysaesthesia syndrome, drug-related adverse event, patients (60 mg QOD (n = 9), Grades 3–5) | Pruritus, drug-related adverse event, patients (60 mg QOD (n = 9), Grades 3–5) | Pyrexia, drug-related adverse event, patients (60 mg QOD (n = 9), Grades 3–5) | Stomatitis, drug-related adverse event, patients (60 mg QOD (n = 9), Grades 3–5) | Vomiting, drug-related adverse event, patients (60 mg QOD (n = 9), Grades 3–5) | ALT increased, drug-related adverse event, patients (135 mg QW (n = 3), All grades) | Blood creatinine increased, drug-related adverse event, patients (135 mg QW (n = 3), All grades) | Erythema multiforme, drug-related adverse event, patients (135 mg QW (n = 3), All grades) | Hypernatremia, drug-related adverse event, patients (135 mg QW (n = 3), All grades) | Hypoalbuminemia, drug-related adverse event, patients (135 mg QW (n = 3), All grades) | Leukopenia, drug-related adverse event, patients (135 mg QW (n = 3), All grades) | Localized edema, drug-related adverse event, patients (135 mg QW (n = 3), All grades) | Lymphopenia, drug-related adverse event, patients (135 mg QW (n = 3), All grades) | Palmar-plantar erythrodysaesthesia syndrome, drug-related adverse event, patients (135 mg QW (n = 3), All grades) | Pruritus, drug-related adverse event, patients (135 mg QW (n = 3), All grades) | Pyrexia, drug-related adverse event, patients (135 mg QW (n = 3), All grades) | Stomatitis, drug-related adverse event, patients (135 mg QW (n = 3), All grades) | ALT increased, drug-related adverse event, patients (135 mg QW (n = 3), Grades 3–5) | Blood creatinine increased, drug-related adverse event, patients (135 mg QW (n = 3), Grades 3–5) | Decreased appetite, drug-related adverse event, patients (135 mg QW (n = 3), Grades 3–5) | Diarrhea, drug-related adverse event, patients (135 mg QW (n = 3), Grades 3–5) | Dry skin, drug-related adverse event, patients (135 mg QW (n = 3), Grades 3–5) | Eosinophil count increased, drug-related adverse event, patients (135 mg QW (n = 3), Grades 3–5)
6: Stomatitis, drug-related adverse event, patients (60 mg QOD (n = 9), All grades)
One of the nine: patients with DLT during Cycle 1 [1]
no DLTs: DLTs during Cycle 1 (135 mg QW)
5: Lymphopenia, drug-related adverse event, patients (60 mg QOD (n = 9), All grades)
2: Neutropenia, drug-related adverse event, patients (60 mg QOD (n = 9), All grades) | Lymphopenia, drug-related adverse event, patients (60 mg QOD (n = 9), Grades 3–5) | Eosinophil count increased, drug-related adverse event, patients (135 mg QW (n = 3), All grades) | Hyperglycemia, drug-related adverse event, patients (135 mg QW (n = 3), All grades) | Insulin c-peptide increased, drug-related adverse event, patients (135 mg QW (n = 3), All grades) | Rash, drug-related adverse event, patients (135 mg QW (n = 3), All grades)
28 days: time until the onset of the DLT after the start of treatment [1]
1: Nausea, drug-related adverse event, patients (60 mg QOD (n = 9), All grades) | Palmar-plantar erythrodysaesthesia syndrome, drug-related adverse event, patients (60 mg QOD (n = 9), All grades) | Rash, drug-related adverse event, patients (60 mg QOD (n = 9), Grades 3–5) | Decreased appetite, drug-related adverse event, patients (135 mg QW (n = 3), All grades) | Diarrhea, drug-related adverse event, patients (135 mg QW (n = 3), All grades) | Dry skin, drug-related adverse event, patients (135 mg QW (n = 3), All grades) | Eosinophilia, drug-related adverse event, patients (135 mg QW (n = 3), All grades) | Fatigue, drug-related adverse event, patients (135 mg QW (n = 3), All grades) | HbA1C increased, drug-related adverse event, patients (135 mg QW (n = 3), All grades) | Hypokalemia, drug-related adverse event, patients (135 mg QW (n = 3), All grades) | Nausea, drug-related adverse event, patients (135 mg QW (n = 3), All grades) | Neutropenia, drug-related adverse event, patients (135 mg QW (n = 3), All grades) | Vomiting, drug-related adverse event, patients (135 mg QW (n = 3), All grades)
4: Pruritus, drug-related adverse event, patients (60 mg QOD (n = 9), All grades)
